17 molecules from patent US10040781B2, “Tank-binding kinase inhibitor compounds” (Gilead Sciences, Inc., priority 2014, dated 2018) can be followed below.

Broadly, the IC50 is the point on the concentration scale where inhibition reaches its midpoint.

The target in assay [1] is TBK1 (Homo sapiens (Human), UniProt Q9UHD2). The assay can be described thus: TBK1 TR-FRET enzymatic assay. (In general: TR-FRET usually uses a lanthanide donor and a delayed reading to cut background.);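 further: phosphorylation of a biotinylated Ser/Thr peptide by purified full-length recombinant TBK1, read by TR-FRET after 240 min at 25 °C, IC50 is the geometric mean of at least four runs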
Chain of TBK1 (Q9UHD2 whole entry): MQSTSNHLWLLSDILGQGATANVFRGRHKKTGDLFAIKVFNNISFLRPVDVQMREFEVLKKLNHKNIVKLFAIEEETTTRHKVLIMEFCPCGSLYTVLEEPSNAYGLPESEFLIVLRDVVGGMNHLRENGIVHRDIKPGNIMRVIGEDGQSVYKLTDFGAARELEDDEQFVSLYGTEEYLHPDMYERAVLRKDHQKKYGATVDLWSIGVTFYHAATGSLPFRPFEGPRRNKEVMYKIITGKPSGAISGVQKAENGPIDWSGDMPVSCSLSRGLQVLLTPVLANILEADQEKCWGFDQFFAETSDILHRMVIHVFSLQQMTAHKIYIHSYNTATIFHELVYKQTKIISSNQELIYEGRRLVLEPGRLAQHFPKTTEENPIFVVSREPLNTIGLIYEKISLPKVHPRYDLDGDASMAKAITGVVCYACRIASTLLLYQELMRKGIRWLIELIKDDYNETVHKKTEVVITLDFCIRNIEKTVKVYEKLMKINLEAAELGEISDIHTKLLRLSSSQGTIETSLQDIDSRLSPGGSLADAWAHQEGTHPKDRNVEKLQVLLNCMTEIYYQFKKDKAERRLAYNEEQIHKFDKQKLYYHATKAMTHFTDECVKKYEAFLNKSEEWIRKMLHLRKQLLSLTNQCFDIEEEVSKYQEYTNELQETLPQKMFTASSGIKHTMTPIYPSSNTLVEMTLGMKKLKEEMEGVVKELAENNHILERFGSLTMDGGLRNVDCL
Description: Enzymatic activity of IKKε and TBK1 was measured using a homogeneous time resolved fluorescence resonance energy transfer (TR-FRET) assay that monitors enzyme dependent phosphorylation of a biotinylated serine/threonine peptide substrate. […] TBK1 and IKKε were expressed and purified as full length recombinant proteins. Detection reagents for the assay were purchased from Cisbio. […] After an assay reaction time of 240 minutes at 25° C., reactions were terminated with EDTA.
All IC50 values represent geometric mean values of a minimum of four determinations.
In assay [2] the target is hJAK2 (Homo sapiens (Human), UniProt O60674). The assay can be described thus: hJAK2 LANCE TR-FRET enzymatic assay. The conditions noted are these: read-out: JAK2 IC50. In kind it is biochemical.
Chain of hJAK2 (O60674 whole entry): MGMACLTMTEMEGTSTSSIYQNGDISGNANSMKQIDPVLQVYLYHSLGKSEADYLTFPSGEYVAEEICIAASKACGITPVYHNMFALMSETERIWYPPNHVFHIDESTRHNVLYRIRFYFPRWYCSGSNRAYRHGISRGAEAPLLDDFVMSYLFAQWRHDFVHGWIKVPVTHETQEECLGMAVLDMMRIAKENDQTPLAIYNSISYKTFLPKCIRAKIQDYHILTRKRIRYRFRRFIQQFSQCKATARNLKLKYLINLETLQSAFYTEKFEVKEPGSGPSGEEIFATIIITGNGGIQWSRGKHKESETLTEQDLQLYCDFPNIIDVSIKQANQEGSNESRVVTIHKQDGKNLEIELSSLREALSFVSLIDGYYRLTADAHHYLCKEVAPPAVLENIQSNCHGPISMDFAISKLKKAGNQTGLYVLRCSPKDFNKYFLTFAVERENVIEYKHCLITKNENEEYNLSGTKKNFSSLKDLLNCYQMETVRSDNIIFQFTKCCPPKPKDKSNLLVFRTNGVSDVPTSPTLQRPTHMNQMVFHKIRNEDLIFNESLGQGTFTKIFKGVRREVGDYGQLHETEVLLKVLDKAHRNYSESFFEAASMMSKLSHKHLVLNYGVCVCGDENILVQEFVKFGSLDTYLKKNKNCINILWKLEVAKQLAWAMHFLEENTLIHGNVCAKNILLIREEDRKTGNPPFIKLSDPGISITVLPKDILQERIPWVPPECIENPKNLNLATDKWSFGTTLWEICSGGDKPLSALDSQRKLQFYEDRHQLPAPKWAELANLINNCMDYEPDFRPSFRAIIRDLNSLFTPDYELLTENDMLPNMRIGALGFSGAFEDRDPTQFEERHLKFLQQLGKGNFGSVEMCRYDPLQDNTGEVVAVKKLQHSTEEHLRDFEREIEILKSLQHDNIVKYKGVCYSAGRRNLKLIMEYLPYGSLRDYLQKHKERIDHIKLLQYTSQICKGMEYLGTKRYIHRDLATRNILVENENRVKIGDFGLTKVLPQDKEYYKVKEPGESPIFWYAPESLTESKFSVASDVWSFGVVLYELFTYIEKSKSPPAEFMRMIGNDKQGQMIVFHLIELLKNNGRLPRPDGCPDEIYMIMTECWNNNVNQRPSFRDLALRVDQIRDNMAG
Assay [3] addresses IKKε (Homo sapiens (Human), UniProt Q14164). The assay can be described thus: IKKε TR-FRET enzymatic assay. Format: biochemical. The conditions noted are these: read-out: IKKe IC50.

Chain of IKKε (Q14164 whole entry): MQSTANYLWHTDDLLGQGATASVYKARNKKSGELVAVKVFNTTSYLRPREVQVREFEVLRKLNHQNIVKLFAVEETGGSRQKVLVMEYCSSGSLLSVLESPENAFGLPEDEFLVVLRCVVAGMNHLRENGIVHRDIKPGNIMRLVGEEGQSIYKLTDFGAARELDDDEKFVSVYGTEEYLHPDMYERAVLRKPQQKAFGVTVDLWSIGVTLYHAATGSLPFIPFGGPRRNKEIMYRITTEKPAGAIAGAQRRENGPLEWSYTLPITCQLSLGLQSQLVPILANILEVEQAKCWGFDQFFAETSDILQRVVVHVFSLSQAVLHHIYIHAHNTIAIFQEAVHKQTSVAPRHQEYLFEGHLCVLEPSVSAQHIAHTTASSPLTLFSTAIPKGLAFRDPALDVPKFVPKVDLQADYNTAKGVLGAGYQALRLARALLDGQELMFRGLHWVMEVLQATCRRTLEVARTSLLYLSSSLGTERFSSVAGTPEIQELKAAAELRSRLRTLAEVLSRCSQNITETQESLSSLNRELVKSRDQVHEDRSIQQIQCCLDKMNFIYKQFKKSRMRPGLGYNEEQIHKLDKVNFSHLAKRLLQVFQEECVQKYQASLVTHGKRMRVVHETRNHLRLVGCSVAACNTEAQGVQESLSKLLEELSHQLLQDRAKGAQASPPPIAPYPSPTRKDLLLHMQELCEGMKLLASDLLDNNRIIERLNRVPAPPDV

For the molecule `CN1CCN(c2ccc(Nc3ncnc(-c4ccc(O[C@@H]5CCN(C(=O)CO)C5)c(C#N)c4)n3)cc2)CC1` [Example 86, (R)-2-((1-(2-hydroxyacetyl)pyrrolidin-3-yl)oxy)-5-(4-((4-(4-methylpiperazin-1-yl)phenyl)amino)-1,3,5-triazin-2-yl)benzonitrile], the half-maximal inhibitory concentration (IC50) came out at 8 nM in assay [1], 459 nM in assay [2] and 4 nM in assay [3].
With `N#Cc1cc(-c2ncnc(Nc3ccc(N4CCN(C5COC5)CC4)cc3)n2)ccc1F` [Example 87, 2-Fluoro-5-(4-((4-(4-(oxetan-3-yl)piperazin-1-yl)phenyl)amino)-1,3,5-triazin-2-yl)benzonitrile], the half-inhibitory concentration (IC50) in assay [1] was 853 nM; in assay [2], greater than 1000 nM; in assay [3] it was greater than 1000 nM.
With `N#Cc1cc(-c2ncnc(Nc3ccc(N4CCN(C5COC5)CC4)cc3)n2)ccc1O[C@@H]1CCN(C(=O)CCO)C1` [Example 89, (R)-2-((1-(3-hydroxypropanoyl)pyrrolidin-3-yl)oxy)-5-(4-((4-(4-(oxetan-3-yl)piperazin-1-yl)phenyl)amino)-1,3,5-triazin-2-yl)benzonitrile], the half-maximal inhibitory concentration (IC50) in assay [1] turned out to be 16 nM; in assay [2] it was 359 nM; in assay [3], 52 nM.
The corresponding values for `N#CCC(=O)N1CC[C@@H](Oc2ccc(-c3ncnc(Nc4ccc(N5CCN(C6COC6)CC5)cc4)n3)cc2C#N)C1` [Example 90, (R)-2-((1-(2-cyanoacetyl)pyrrolidin-3-yl)oxy)-5-(4-((4-(4-(oxetan-3-yl)piperazin-1-yl)phenyl)amino)-1,3,5-triazin-2-yl)benzonitrile] are 7 nM, 292 nM and 37 nM.
The corresponding values for `N#Cc1cc(-c2ncnc(Nc3ccc(N4CCN(C5COC5)CC4)cc3)n2)ccc1O[C@@H]1CCN(C(=O)C2COC2)C1` [Example 92, (R)-5-(4-((4-(4-(oxetan-3-yl)piperazin-1-yl)phenyl)amino)-1,3,5-triazin-2-yl)-2-((1-(oxetane-3-carbonyl)pyrrolidin-3-yl)oxy)benzonitrile] are 45 nM, greater than 1000 nM and 197 nM.
The corresponding values for `N#Cc1cc(-c2ncnc(Nc3ccc(N4CCN(C5COC5)CC4)cc3)n2)ccc1O[C@@H]1CCNC1` [Example 93, (R)-5-(4-((4-(4-(oxetan-3-yl)piperazin-1-yl)phenyl)amino)-1,3,5-triazin-2-yl)-2-(pyrrolidin-3-yloxy)benzonitrile] are 30 nM, 961 nM and 120 nM.
Turning to `N#Cc1cc(-c2ncnc(Nc3ccc(N4CCN(C5COC5)CC4)cc3)n2)ccc1O[C@@H]1CCN(C(=O)C2(O)CC2)C1` [Example 94, (R)-2-((1-(1-hydroxycyclopropanecarbonyl)pyrrolidin-3-yl)oxy)-5-(4-((4-(4-(oxetan-3-yl)piperazin-1-yl)phenyl)amino)-1,3,5-triazin-2-yl)benzonitrile], the IC50 in assay [1] is 173 nM; in assay [2], greater than 1000 nM; in assay [3] it was 367 nM.
In the case of `N#Cc1cc(-c2ncnc(Nc3ccc(N4CCN(C5COC5)CC4)cc3)n2)ccc1O[C@@H]1CCN(C=O)C1` [Example 95, (R)-2-((1-formylpyrrolidin-3-yl)oxy)-5-(4-((4-(4-(oxetan-3-yl)piperazin-1-yl)phenyl)amino)-1,3,5-triazin-2-yl)benzonitrile], the half-inhibitory concentration (IC50) in assay [1] was 7 nM; in assay [2] it was 377 nM; in assay [3], 21 nM.
For `N#Cc1cc(-c2ncnc(Nc3ccc(N4CCN(C5COC5)CC4)cc3)n2)ccc1O[C@@H]1CCN(C(=O)C(F)F)C1` [Example 96, (R)-2-((1-(2,2-difluoroacetyl)pyrrolidin-3-yl)oxy)-5-(4-((4-(4-(oxetan-3-yl)piperazin-1-yl)phenyl)amino)-1,3,5-triazin-2-yl)benzonitrile], the IC50 came out at 21 nM in assay [1], 560 nM in assay [2] and 91 nM in assay [3].
The matching figures for `N#Cc1cc(-c2ncnc(Nc3ccc(N4CCN(C5COC5)CC4)cc3)n2)ccc1OC1CCCN(C(=O)CO)CC1` (stereo not drawn) [Example 97, 2-((1-(2-hydroxyacetyl)azepan-4-yl)oxy)-5-(4-((4-(4-(oxetan-3-yl)piperazin-1-yl)phenyl)amino)-1,3,5-triazin-2-yl)benzonitrile]: 11 nM, 241 nM and 22 nM.
The corresponding values for `N#Cc1cc(-c2ncnc(Nc3ccc(N4CCN(C5COC5)CC4)cc3)n2)ccc1OC1CN(C(=O)CO)CC1(F)F` (stereo not drawn) [Example 98, 2-((4,4-difluoro-1-(2-hydroxyacetyl)pyrrolidin-3-yl)oxy)-5-(4-((4-(4-(oxetan-3-yl)piperazin-1-yl)phenyl)amino)-1,3,5-triazin-2-yl)benzonitrile] are 5 nM, 119 nM and 14 nM.
The corresponding values for `C[C@@H]1C[C@@H](Oc2ccc(-c3ncnc(Nc4ccc(N5CCN(C6COC6)CC5)cc4)n3)cc2C#N)CN1C(=O)CO` [Example 99, 2-(((3R,5R)-1-(2-hydroxyacetyl)-5-methylpyrrolidin-3-yl)oxy)-5-(4-((4-(4-(oxetan-3-yl)piperazin-1-yl)phenyl)amino)-1,3,5-triazin-2-yl)benzonitrile] are 77 nM, 440 nM and 193 nM.
Regarding `C[C@H]1C[C@@H](Oc2ccc(-c3ncnc(Nc4ccc(N5CCN(C6COC6)CC5)cc4)n3)cc2C#N)CN1C(=O)CO` [Example 100, 2-(((3R,5S)-1-(2-hydroxyacetyl)-5-methylpyrrolidin-3-yl)oxy)-5-(4-((4-(4-(oxetan-3-yl)piperazin-1-yl)phenyl)amino)-1,3,5-triazin-2-yl)benzonitrile], the concentration for half-maximal inhibition (IC50) in assay [1] came out at 121 nM; in assay [2] it was 525 nM; in assay [3], 249 nM.
In the case of `N#Cc1cc(-c2ncnc(Nc3ccc(N4CCN(C5COC5)CC4)cc3)n2)ccc1O[C@H]1C[C@@H]2C[C@H]1N(C(=O)CO)C2` [Example 102, 2-(((1R,4S,6S)-2-(2-hydroxyacetyl)-2-azabicyclo[2.2.1]heptan-6-yl)oxy)-5-(4-((4-(4-(oxetan-3-yl)piperazin-1-yl)phenyl)amino)-1,3,5-triazin-2-yl)benzonitrile], the IC50 amounted to 11 nM in assay [1], 380 nM in assay [2] and 24 nM in assay [3].
As for `N#Cc1cc(-c2ncnc(Nc3ccc(N4CCOCC4)cc3)n2)ccc1O[C@@H]1CCN(C(=O)CO)C1` [Example 103, (R)-2-((1-(2-hydroxyacetyl)pyrrolidin-3-yl)oxy)-5-(4-((4-morpholinophenyl)amino)-1,3,5-triazin-2-yl)benzonitrile], the values for the half-inhibitory concentration (IC50) in assay [1], in assay [2] and in assay [3] were 6 nM, 260 nM and 10 nM, respectively.
The matching figures for `COc1ccc(-c2ncnc(Nc3ccc(N4CCN(C5COC5)CC4)cc3)n2)cc1C#N` [Example 104, 2-methoxy-5-(4-((4-(4-(oxetan-3-yl)piperazin-1-yl)phenyl)amino)-1,3,5-triazin-2-yl)benzonitrile]: 42 nM, 328 nM and 215 nM.
As to `COc1cc(C#N)cc(-c2ncnc(Nc3ccc(N4CCN(C5COC5)CC4)cc3)n2)c1` [Example 105, 3-methoxy-5-(4-((4-(4-(oxetan-3-yl)piperazin-1-yl)phenyl)amino)-1,3,5-triazin-2-yl)benzonitrile], the figures for the half-maximal inhibitory concentration (IC50) in assay [1], in assay [2] and in assay [3] were 79 nM, 212 nM and greater than 1000 nM, respectively.
